In patent US20070259879A1, “Piperazine and piperidine biaryl derivatives” (priority 2006, published 2007):

These molecules were tested on HIV-1 pseudotyped virus (assay: HIV-1 pseudotyped virus assay (luciferase reporter gene, single cycle of infection)). Details: Human immunodeficiency virus 1, CCR5, 72 h, read-out: Activity (antiviral activity, IC50).
Type: cell-based
In short: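 Single-cycle luciferase-reporter pseudovirus made by co-transfecting 293T cells with HIV-1 envelope plasmid plus env-defective, nef-replaced backbone; infects CD4/CCR5 or CXCR4 target cells. Compounds added before virus, serial dilutions in duplicate, two experiments; 3-day culture, lysis, luminescence. IC50 = 50% signal reduction interpolated from titration curve.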

Row | Structure (SMILES) | IC50 [µM]
1 | Cc1cc(-c2cc(Cl)c(C(=O)C(=O)N3CCN(C(=O)c4ccccc4)C[C@H]3C)c(Cl)c2)on1 [Example 220] | > 5
2 | C[C@@H]1CN(C(=O)c2ccccc2)CCN1C(=O)C(=O)c1ccc(-c2cc[nH]n2)c(Cl)c1N(C)C [Example 221] | < 5
3 | C[C@@H]1CN(C(=O)c2ccccc2)CCN1C(=O)C(=O)c1cc(Cl)c(-c2cc[nH]n2)cc1N(C)C [Example 222] | > 5
4 | C[C@@H]1CN(C(=O)c2ccccc2)CCN1C(=O)C(=O)c1ccc(-c2cc[nH]n2)cc1O [Example 223] | < 5
5 | Cc1cc(-c2ccc(C(=O)C(=O)N3CCN(C(=O)c4ccccc4)C[C@H]3C)c(O)c2)on1 [Example 224] | > 5
6 | C[C@@H]1CN(C(=O)c2ccccc2)CCN1C(=O)C(=O)c1ccc(Br)c(Cl)c1 [Example 225] | < 5
7 | COc1cc(Br)ccc1C(=O)C(=O)N1CCN(C(=O)c2ccccc2)C[C@H]1C [Example 226] | < 5
8 | CNc1cc(-c2cc[nH]n2)ccc1C(=O)C(=O)N1CCN(C(=O)c2ccccc2)C[C@H]1C [Example 227] | > 5
9 | COc1cc(Br)c(Cl)cc1C(=O)C(=O)N1CCN(C(=O)c2ccccc2)CC1 [Example 228] | < 5
10 | COc1cc(-c2onc(C)c2Cl)ccc1C(=O)C(=O)N1CCN(C(=O)c2ccccc2)C[C@H]1C [Example 229] | < 5
11 | C[C@@H]1CN(C(=O)c2ccccc2)CCN1C(=O)C(=O)c1cc(Cl)c(-c2cc[nH]n2)c(Cl)c1N [Example 230] | > 5
12 | C[C@@H]1CN(C(=O)c2ccccc2)CCN1C(=O)C(=O)c1ccc(-n2cncn2)c(Cl)c1 [Example 231] | > 5
13 | C[C@@H]1CN(C(=O)c2ccccc2)CCN1C(=O)C(=O)c1ccc(-n2ccnn2)c(Cl)c1 [Example 232] | > 5
14 | Cc1nnc(-c2ccc(C(=O)C(=O)N3CCN(C(=O)c4ccccc4)C[C@H]3C)cc2)s1 [Example 233] | < 5
15 | C[C@@H]1CN(C(=O)c2ccccc2)CCN1C(=O)C(=O)c1ccc(-c2nc[nH]n2)cc1 [Example 234] | < 5
16 | Cc1cc(-c2ccc(C(O)C(=O)N3CCN(C(=O)c4ccccc4)C[C@H]3C)cc2)on1 (some centres unmarked) [Example 235] | > 5
17 | COc1cc(-n2ccnn2)c(Cl)cc1C(=O)C(=O)N1CCN(C(=O)c2ccccc2)CC1 [Example 236] | < 5
18 | COc1cc(-c2cc[nH]n2)c(Cl)cc1C(=O)C(=O)N1C2CCC1CN(C(=O)c1ccccc1)C2 [Example 237] | > 5

Row | Structure (SMILES) | IC50 [µM]
19 | COc1cc(OC)c(C(=O)C(=O)N2CCN(C(=O)c3ccccc3)C[C@H]2C)cn1 [Example 238] | > 5
20 | COc1cc(-c2cnn(C)c2)ncc1C(=O)C(=O)N1CCN(C(=O)c2ccccc2)C[C@H]1C [Example 239] | < 5
21 | CC1CN(C(=O)c2ccccc2)CCN1C(=O)C(=O)c1ccc(-n2cccn2)cc1 (centres unmarked) [Example 240] | < 5
22 | C[C@@H]1CN(C(=O)c2ccccc2)CCN1C(=O)C(=O)c1c[nH]c(-c2ccc3[nH]ccc3c2)c1 [Example 241] | > 5
23 | C[C@@H]1CN(C(=O)c2ccccc2)CCN1C(=O)C(=O)c1cnc(-c2ccccc2)c(Cl)c1O [Example 242] | > 5
24 | C[C@@H]1CN(C(=O)c2ccccc2)CCN1C(=O)C(=O)c1cnc(-c2cccs2)cc1O [Example 243] | > 5
25 | C[C@@H]1CN(C(=O)c2ccccc2)CCN1C(=O)C(=O)c1cnc(-c2ccccc2)cc1O [Example 244] | > 5
26 | C[C@@H]1CN(C(=O)c2ccccc2)CCN1S(=O)(=O)c1ccc(C(=O)c2cccs2)cc1 [Example 245] | > 5
27 | C[C@@H]1CN(C(=O)c2ccccc2)CCN1S(=O)(=O)c1ccc(C(=O)c2ccsc2)s1 [Example 246] | > 5
28 | CC1CN(C(=O)c2ccccc2)CCN1S(=O)(=O)c1ccc(C(=O)c2ccco2)cc1 (centres unmarked) [Example 247] | > 5
29 | C[C@@H]1CN(C(=O)c2ccccc2)CCN1S(=O)(=O)c1ccc(C(=O)c2ccon2)s1 [Example 248] | > 5
30 | CC1CN(C(=O)c2ccccc2)CCN1S(=O)(=O)c1ccc(C(=O)n2ccnc2)cc1 (centres unmarked) [Example 249] | > 5
31 | Cc1cc(C)n(-c2ccc(C(=O)C(=O)N3CCN(C(=O)c4ccccc4)C[C@H]3C)cc2)n1 [Example 250] | > 5
32 | C[C@@H]1CN(C(=O)c2ccccc2)CCN1C(=O)C(=O)c1cccc(-c2cnco2)c1 [Example 251] | > 5
33 | C[C@@H]1CN(C(=O)c2ccccc2)CCN1C(=O)C(=O)c1cccc(-c2ccccn2)c1 [Example 252] | > 5
34 | C[C@@H]1CN(C(=O)c2ccccc2)CCN1C(=O)C(=O)c1cccc(-c2ncccn2)c1 [Example 253] | > 5
35 | COc1cc(OC)nc(-c2ccc(C(=O)C(=O)N3CCN(C(=O)c4ccccc4)C[C@H]3C)cc2)n1 [Example 254] | > 5
